Reference: ChEMBL document CHEMBL5579824, “Novel Hsp90-Targeting PROTACs: Enhanced synergy with cisplatin in combination therapy of cervical cancer” (Eur J Med Chem, 2024)
Calls of active or inactive are those of the source. The rule behind the calls is not given here.

Experiments:
SiHa [1] = assay: Antitumor activity against human SiHa cells xenografted in BALB/c nude mouse assessed as tumor growth inhibition at 2 mg/kg, ip; type: functional, organism-based
[2] = biological target: Serine/threonine-protein kinase AKT (Homo sapiens) (UniProt P31751+Q9Y243+P31749); assay: Inhibition of AKT phosphorylation in human SiHa cells incubated for 10 hrs by Western blot analysis; type: cell-based; conditions: dose 0.01-1 µM
[3] = biological target: T1, Protein cereblon/Heat shock protein HSP 90-alpha/Heat shock protein HSP 90-beta (Homo sapiens) (UniProt P07900+P08238+Q96SW2); assay: Protac activity at CRBN/Hsp90 in human SiHa cells assessed as induction of Hsp90 degradation at 1 uM incubated for 10 hrs by Western blot analysis; type: cell-based
[4] = biological target: T1, Protein cereblon/Heat shock protein HSP 90-alpha/Heat shock protein HSP 90-beta (Homo sapiens); assay: Protac activity at CRBN/Hsp90 in human SiHa cells assessed as induction of Hsp90 degradation at 1 uM incubated for 36 hrs by Western blot analysis; type: cell-based
[5] = biological target: T1, Protein cereblon/Heat shock protein HSP 90-alpha/Heat shock protein HSP 90-beta (Homo sapiens); assay: Protac activity at CRBN/Hsp90 in human Ca-Ski cells assessed as induction of Hsp90 degradation at 0.05 uM incubated for 10 hrs by Western blot analysis; type: cell-based
[6] = biological target: T1, Protein cereblon/Heat shock protein HSP 90-alpha/Heat shock protein HSP 90-beta (Homo sapiens); assay: Protac activity at CRBN/Hsp90 in human Ca-Ski cells assessed as induction of Hsp90 degradation (causing hook effect) at > 0.075 uM incubated for 10 hrs by Western blot analysis; type: cell-based
SiHa [7] = assay: Inhibition of cell migration in human SiHa cells at 0.05 uM measured for 24 to 48 hrs by microscope based wound healing assay; type: functional; conditions: time 24-48 hrs
SiHa [8] = assay: Induction of apoptosis in human SiHa cells assessed as increase in apoptotic cells incubated after 48 hrs by annexin V-FITC/PI staining based flow cytometry; type: functional, cell-based; conditions: dose 0.05-10 µM
SiHa [9] = assay: Induction of apoptosis in human SiHa cells assessed as early apoptotic cells at 10 uM incubated after 48 hrs by annexin V-FITC/PI staining based flow cytometry (reference value: 2.05 %); type: functional
SiHa [10] = assay: Induction of apoptosis in human SiHa cells assessed as necrotic cells at 10 uM incubated after 48 hrs by annexin V-FITC/PI staining based flow cytometry (reference value: 0.08 %); type: functional
SiHa [11] = assay: Induction of apoptosis in human SiHa cells assessed as viable cells at 0.05 uM incubated after 48 hrs by annexin V-FITC/PI staining based flow cytometry (reference value: 90.4 %); type: functional; conditions: read-out: Activity
SiHa [12] = assay: Induction of apoptosis in human SiHa cells assessed as early apoptotic cells at 0.05 uM incubated after 48 hrs by annexin V-FITC/PI staining based flow cytometry (reference value: 2.05 %); type: functional
SiHa [13] = assay: Induction of apoptosis in human SiHa cells assessed as necrotic cells at 0.05 uM incubated after 48 hrs by annexin V-FITC/PI staining based flow cytometry (reference value: 0.08 %); type: functional
SiHa [14] = assay: Induction of cell cycle arrest in human SiHa cells assessed as accumulation of cells at S pahse at 10 uM incubated after 48 hrs by PI staining based flow cytometry (reference value: 8.51 %); type: functional
SiHa [15] = assay: Induction of cell cycle arrest in human SiHa cells assessed as accumulation of cells at G2/M pahse at 10 uM incubated after 48 hrs by PI staining based flow cytometry (reference value: 7.37 %); type: functional
SiHa [16] = assay: Induction of cell cycle arrest in human SiHa cells assessed as accumulation of cells at G1 pahse at 2.5 uM incubated after 48 hrs by PI staining based flow cytometry (reference value: 83.90 %); type: functional
SiHa [17] = assay: Induction of cell cycle arrest in human SiHa cells assessed as accumulation of cells at G2/M pahse at 2.5 uM incubated after 48 hrs by PI staining based flow cytometry (reference value: 7.37 %); type: functional
SiHa [18] = assay: Induction of cell cycle arrest in human SiHa cells assessed as accumulation of cells at G2/M pahse at 1 uM incubated after 48 hrs by PI staining based flow cytometry (reference value: 7.37 %); type: functional
SiHa [19] = assay: Synergistic antiproliferative activity against human SiHa cells assessed as combination index at 0.05 uM incubated for 72 hrs in presence of 31.62 uM cisplatin by CCK-8 assay; type: functional
SiHa [20] = assay: Synergistic antiproliferative activity against human SiHa cells assessed as combination index at 0.05 uM incubated for 72 hrs in presence of 10 uM cisplatin by CCK-8 assay; type: functional
SiHa [21] = assay: Synergistic antiproliferative activity against human SiHa cells assessed as combination index at 0.05 uM incubated for 72 hrs in presence of 0.1 uM cisplatin by CCK-8 assay; type: functional
SiHa [22] = assay: Synergistic antiproliferative activity against human SiHa cells assessed as combination index at 0.05 uM incubated for 72 hrs in presence of 0.01 uM cisplatin by CCK-8 assay; type: functional
SiHa [23] = assay: Synergistic antiproliferative activity against human SiHa cells assessed as combination index at 0.1 uM incubated for 72 hrs in presence of 10 uM cisplatin by CCK-8 assay; type: functional
SiHa [24] = assay: Synergistic antiproliferative activity against human SiHa cells assessed as combination index at 0.1 uM incubated for 72 hrs in presence of 0.03 uM cisplatin by CCK-8 assay; type: functional
SiHa [25] = assay: Synergistic antiproliferative activity against human SiHa cells assessed as combination index at 0.5 uM incubated for 72 hrs in presence of 3.16 uM cisplatin by CCK-8 assay; type: functional
SiHa [26] = assay: Synergistic antiproliferative activity against human SiHa cells assessed as combination index at 0.5 uM incubated for 72 hrs in presence of 1 uM cisplatin by CCK-8 assay; type: functional
SiHa [27] = assay: Synergistic antiproliferative activity against human SiHa cells assessed as combination index at 0.5 uM incubated for 72 hrs in presence of 0.03 uM cisplatin by CCK-8 assay; type: functional
SiHa [28] = assay: Synergistic antiproliferative activity against human SiHa cells assessed as combination index at 0.75 uM incubated for 72 hrs in presence of 1 uM cisplatin by CCK-8 assay; type: functional
SiHa [29] = assay: Synergistic antiproliferative activity against human SiHa cells assessed as combination index at 0.75 uM incubated for 72 hrs in presence of 0.01 uM cisplatin by CCK-8 assay; type: functional
SiHa [30] = assay: Synergistic antiproliferative activity against human SiHa cells assessed as combination index at 1 uM incubated for 72 hrs in presence of 0.01 uM cisplatin by CCK-8 assay; type: functional
SiHa [31] = assay: Synergistic antiproliferative activity against human SiHa cells assessed as combination index at 5 uM incubated for 72 hrs in presence of 0.01 uM cisplatin by CCK-8 assay; type: functional
SiHa [32] = assay: Synergistic antiproliferative activity against human SiHa cells assessed as combination index at 10 uM incubated for 72 hrs in presence of 0.03 uM cisplatin by CCK-8 assay; type: functional
SiHa [33] = assay: Synergistic antiproliferative activity against human SiHa cells assessed as combination index at 10 uM incubated for 72 hrs in presence of 0.01 uM cisplatin by CCK-8 assay; type: functional
[34] = biological target: T1, Protein cereblon/Heat shock protein HSP 90-alpha/Heat shock protein HSP 90-beta (Homo sapiens); assay: Protac activity at CRBN/Hsp90 in human SiHa cells assessed as decrease in AKT protein expression level incubated for 10 hrs by Western blot analysis; type: cell-based; conditions: dose 0.01-1 µM

Chain of Serine/threonine-protein kinase AKT (Homo sapiens) (P31749 whole entry, looked up): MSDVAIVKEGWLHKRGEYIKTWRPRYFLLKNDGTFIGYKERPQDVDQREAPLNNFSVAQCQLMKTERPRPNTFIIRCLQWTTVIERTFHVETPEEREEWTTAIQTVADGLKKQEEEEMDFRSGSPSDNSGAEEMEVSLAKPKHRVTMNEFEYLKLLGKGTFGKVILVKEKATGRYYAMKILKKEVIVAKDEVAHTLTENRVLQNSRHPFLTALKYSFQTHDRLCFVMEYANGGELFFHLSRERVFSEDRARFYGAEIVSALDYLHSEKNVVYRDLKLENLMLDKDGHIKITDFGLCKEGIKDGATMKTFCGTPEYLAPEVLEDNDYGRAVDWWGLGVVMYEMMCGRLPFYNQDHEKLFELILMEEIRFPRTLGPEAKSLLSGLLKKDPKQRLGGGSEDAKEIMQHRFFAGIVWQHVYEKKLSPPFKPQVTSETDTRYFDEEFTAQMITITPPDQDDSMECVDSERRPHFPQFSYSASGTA
Chain of Serine/threonine-protein kinase AKT (Homo sapiens) (P31751 whole entry, looked up): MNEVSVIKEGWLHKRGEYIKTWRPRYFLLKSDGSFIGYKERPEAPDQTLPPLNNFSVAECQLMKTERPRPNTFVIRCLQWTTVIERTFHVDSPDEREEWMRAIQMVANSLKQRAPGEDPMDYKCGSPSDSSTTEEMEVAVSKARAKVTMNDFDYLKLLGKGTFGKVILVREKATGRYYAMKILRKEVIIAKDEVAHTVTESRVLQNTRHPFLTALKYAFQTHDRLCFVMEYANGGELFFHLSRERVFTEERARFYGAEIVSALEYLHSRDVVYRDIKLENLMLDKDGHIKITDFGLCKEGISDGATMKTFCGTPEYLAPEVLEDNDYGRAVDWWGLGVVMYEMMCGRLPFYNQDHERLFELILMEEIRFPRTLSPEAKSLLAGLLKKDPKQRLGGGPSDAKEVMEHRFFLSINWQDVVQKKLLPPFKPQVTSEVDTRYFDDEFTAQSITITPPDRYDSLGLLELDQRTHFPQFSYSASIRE
Chain of Serine/threonine-protein kinase AKT (Homo sapiens) (Q9Y243 whole entry, looked up): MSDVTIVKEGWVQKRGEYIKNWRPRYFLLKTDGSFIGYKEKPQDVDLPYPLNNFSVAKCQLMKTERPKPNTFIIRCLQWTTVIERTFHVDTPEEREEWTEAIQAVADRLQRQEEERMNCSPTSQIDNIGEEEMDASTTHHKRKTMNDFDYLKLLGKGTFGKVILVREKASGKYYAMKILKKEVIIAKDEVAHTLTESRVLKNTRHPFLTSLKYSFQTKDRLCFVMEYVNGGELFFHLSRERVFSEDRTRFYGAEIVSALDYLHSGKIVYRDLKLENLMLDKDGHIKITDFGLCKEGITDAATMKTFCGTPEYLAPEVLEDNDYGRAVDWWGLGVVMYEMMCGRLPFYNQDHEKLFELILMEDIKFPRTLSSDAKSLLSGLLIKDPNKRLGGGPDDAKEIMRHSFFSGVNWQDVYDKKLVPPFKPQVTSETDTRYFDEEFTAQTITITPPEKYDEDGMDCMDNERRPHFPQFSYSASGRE

For `CC1(C)CC(=O)c2c(C(F)(F)F)nn(-c3ccc(C(N)=O)c(N[C@H]4CC[C@H](OC(=O)CNC(=O)CCCCCCCNc5cccc6c5CN(C5CCC(=O)NC5=O)C6=O)CC4)c3)c2C1` (some centres undefined), the TGI (SiHa [1]) was “Active”, the inhibition [2] was “Active” and the Activity [3] was “Active”. The Activity [4] was “inactive”, the Activity [5] was “Active” and the Activity [6] was “inactive”. For the same compound, the inhibition (SiHa [7]) was “Active”, the Activity (SiHa [8]) was “Dose-Dependent Effect” and the Activity (SiHa [9]) was 20.83%. The Activity (SiHa [10]) was 0.27%, the viability at 0.05 µM (SiHa [11]) was 90.1% and the Activity (SiHa [12]) was 2.44%. For the same compound, the Activity (SiHa [13]) was 0.1%, the Activity (SiHa [14]) was 13.6% and the Activity (SiHa [15]) was 24.06%. It also gave an Activity (SiHa [16]) of 53.29%, an Activity (SiHa [17]) of 25.47% and an Activity (SiHa [18]) of 27.12%. It also gave a CI (SiHa [19]) of 0.25, a CI (SiHa [20]) of 1.26 and a CI (SiHa [21]) of 0.36. For the same compound, the CI (SiHa [22]) was 1.83, the CI (SiHa [23]) was 0.43 and the CI (SiHa [24]) was 0.49. For the same compound, the CI (SiHa [25]) was 0.14, the CI (SiHa [26]) was 0.13 and the CI (SiHa [27]) was 0.14. The CI (SiHa [28]) was 0.17, the CI (SiHa [29]) was 0.2 and the CI (SiHa [30]) was 0.23. For the same compound, the CI (SiHa [31]) was 1.02, the CI (SiHa [32]) was 2.11 and the CI (SiHa [33]) was 2.19. The Activity [34] was “Dose-Dependent Effect”.
